In US20260138961A1, “MODULATORS OF MITOCHONDRIAL DNA REPLICATION” (Pretzel Therapeutics, Inc., priority 2022, published 2026):

target: T1, POLγ W748S + E1143G (Homo sapiens, UniProt P54098, E1143G/W748S); assay: DNA polymerization assay, W748S + E1143G mutant; format: biochemical; settings: stimulation of polymerase activity, primed M13mp18 ssDNA, 37° C. 2 hours
T1 sequence (P54098 1-1239 W748S/E1143G): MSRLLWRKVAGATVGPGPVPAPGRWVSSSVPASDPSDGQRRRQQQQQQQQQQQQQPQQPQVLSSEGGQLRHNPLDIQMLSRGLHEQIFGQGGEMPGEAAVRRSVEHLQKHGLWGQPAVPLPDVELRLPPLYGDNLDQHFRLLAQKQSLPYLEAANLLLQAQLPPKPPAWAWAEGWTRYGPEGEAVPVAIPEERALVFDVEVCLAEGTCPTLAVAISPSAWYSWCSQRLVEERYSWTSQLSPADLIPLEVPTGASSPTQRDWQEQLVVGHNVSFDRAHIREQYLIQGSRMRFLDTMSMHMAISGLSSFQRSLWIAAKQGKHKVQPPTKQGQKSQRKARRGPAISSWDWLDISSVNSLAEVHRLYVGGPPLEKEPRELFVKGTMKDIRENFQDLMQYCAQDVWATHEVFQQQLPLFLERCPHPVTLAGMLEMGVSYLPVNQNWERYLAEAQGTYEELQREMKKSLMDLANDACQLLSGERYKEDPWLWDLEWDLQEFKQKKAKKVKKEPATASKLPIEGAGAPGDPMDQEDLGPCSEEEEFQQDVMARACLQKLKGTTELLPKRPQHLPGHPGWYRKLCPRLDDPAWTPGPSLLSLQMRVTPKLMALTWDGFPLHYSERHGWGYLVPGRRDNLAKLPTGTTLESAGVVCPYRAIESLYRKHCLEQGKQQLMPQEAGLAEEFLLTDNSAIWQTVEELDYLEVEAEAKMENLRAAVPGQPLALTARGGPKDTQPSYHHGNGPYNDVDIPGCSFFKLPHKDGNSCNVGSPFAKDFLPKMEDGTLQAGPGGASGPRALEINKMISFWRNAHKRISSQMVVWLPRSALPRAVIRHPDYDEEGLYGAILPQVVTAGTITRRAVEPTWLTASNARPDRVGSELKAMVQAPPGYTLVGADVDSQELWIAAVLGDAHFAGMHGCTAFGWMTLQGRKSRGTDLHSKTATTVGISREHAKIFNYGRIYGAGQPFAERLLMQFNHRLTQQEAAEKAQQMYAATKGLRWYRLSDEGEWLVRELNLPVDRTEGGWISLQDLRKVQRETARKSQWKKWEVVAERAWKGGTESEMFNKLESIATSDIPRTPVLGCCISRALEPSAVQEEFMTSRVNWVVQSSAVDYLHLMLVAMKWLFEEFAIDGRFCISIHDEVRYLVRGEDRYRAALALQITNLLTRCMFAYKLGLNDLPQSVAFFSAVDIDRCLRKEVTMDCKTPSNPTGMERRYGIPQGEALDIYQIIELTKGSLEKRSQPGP
T1 sequence (Q9UHN1 1-485 partner): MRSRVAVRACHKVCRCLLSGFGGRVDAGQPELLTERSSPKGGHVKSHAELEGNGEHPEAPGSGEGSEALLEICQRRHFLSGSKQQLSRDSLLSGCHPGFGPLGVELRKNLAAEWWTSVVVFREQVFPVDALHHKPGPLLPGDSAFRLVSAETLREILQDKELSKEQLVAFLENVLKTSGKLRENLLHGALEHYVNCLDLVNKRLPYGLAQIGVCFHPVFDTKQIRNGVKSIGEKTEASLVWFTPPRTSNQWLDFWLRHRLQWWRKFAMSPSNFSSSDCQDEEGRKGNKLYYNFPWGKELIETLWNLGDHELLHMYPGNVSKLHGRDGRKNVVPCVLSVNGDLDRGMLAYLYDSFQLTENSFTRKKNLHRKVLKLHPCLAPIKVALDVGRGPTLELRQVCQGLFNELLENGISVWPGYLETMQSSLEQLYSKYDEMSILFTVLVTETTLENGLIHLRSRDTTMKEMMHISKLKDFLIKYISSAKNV
Method: DNA Polymerization Assay to Monitor Effects on Human Wildtype POLγ and Four Disease-Causing Mutant Variants of Human POLγ.
The ability of small molecules to stimulate the polymerase activity of POLγ was analyzed in a quantitative fluorescence SYBR Green I assay with fluorescence intensity (FI) readout.
In the presence of dNTPs, wild type human POLγ and mutant derivatives thereof were incubated with single-stranded, circular M13mp18 ssDNA hybridized to a short DNA oligonucleotide that functions as a primer for initiation of DNA synthesis. POLγ and mutant derivatives thereof will extend the primer and use the M13mp18 molecule as a template to synthesize long stretches of double-stranded DNA. SYBR Green I, which is a double-stranded DNA-binding dye, was used to quantify formation of double-stranded DNA in the reaction. When bound to double-stranded DNA, SYBR Green I fluorescence increases by up to 100-fold.
The assay was performed in the 384-well plate format. Upon addition of compounds, changes in double-stranded DNA synthesis activity can be monitored by following effects on fluorescent intensity.
The reactions also contained the accessory POLγB subunit, and the human mitochondrial single-stranded DNA binding protein (mtSSB).
The DNA template mixture used in the assay contained 0.5 nM primed M13 mp18 ssDNA, 400 nM mtSSB, 0.1 mM Tris-HCl (pH 8.0), 0.1 mM dNTP, 10 mM MgCl2, 0.1 mg/mL BSA, 1 mM TCEP solution, and 0.02% Triton X-100. The DNA template mixture for the wild type protein contained either 100 μM dNTP, 1 μM dNTP, or 0.1 μM dNTP, designated in Table 2 as 100 μM, 1 μM, and 0.1 μM, respectfully.
Microplates with compounds (0.1 μL in each well) to be tested in the assay were prepared from 10 mM compound stocks in 100% DMSO, and equal amounts of DMSO without any compound were added to positive and negative control wells.
The protein mixture was dispensed (5 μL into each well) into compound plates and incubated at 37° C. for 15 minutes. After incubation, 5 μL of the DNA template mixture was dispensed into each well. The plates were then incubated at 37° C. for 2 hours.
During incubation, a combined stop buffer and detection reagent solution was prepared. The buffer contained 25 mM EDTA (pH 8.0), 0.02% Triton X-100, and SYBR Green I [Invitrogen] diluted 10,000× (for fluorescent readout). EDTA will stop the enzymatic reaction by chelating magnesium ions.

AC50 | Structure (SMILES)
> 10 µM | Cc1cc(S(=O)(=O)Nc2csc(C(=O)N(CC(N)=O)C3CCCCC3)n2)c(C)cc1Cl [Example 179, N-(2-amino-2-oxoethyl)-4-((4-chloro-2,5-dimethylphenyl)sulfonamido)-N-cyclohexylthiazole-2-carboxamide]
> 10 µM | Cc1cc(S(=O)(=O)Nc2nc(-c3ccccc3)n(C)n2)c(C)cc1Cl [Example 180, 4-chloro-2,5-dimethyl-N-(1-methyl-5-phenyl-1H-1,2,4-triazol-3-yl)benzenesulfonamide]
> 10 µM | Cc1cc(S(=O)(=O)Nc2csc(-c3ccn(C)n3)n2)c(C)cc1Cl [Example 181, 4-chloro-2,5-dimethyl-N-(2-(1-methyl-1H-pyrazol-3-yl)thiazol-4-yl)benzenesulfonamide]
0.7 µM | Cc1cc(S(=O)(=O)Nc2csc(-c3cnn(C)c3)n2)c(C)cc1Cl [Example 183, 4-chloro-2,5-dimethyl-N-(2-(1-methyl-1H-pyrazol-4-yl)thiazol-4-yl)benzenesulfonamide]
